Test results published in paper PMC4554882 (Bioorganic & medicinal chemistry, 2015).
Values after ≈ are worked out from the molar mass of the structure shown. Read-outs that look alike come from different tables or passages of the source.

How the values were obtained:
[1] = tested on: tubulin; test: Tubulin assembly inhibition; format: biochemical
[2] = tested on: tubulin; test: Inhibition of [3H]colchicine binding to tubulin; conditions: tubulin 1 μM, [3H]colchicine 5 μM, 10 min at 37 °C
[3] = tested on: DU145 (prostate cancer); conditions: read-out: GI50 (μM ± SD) DU145, ref [14]; cited from earlier work
[4] = tested on: tubulin; conditions: tubulin 1 μM, [3H]colchicine 5 μM, ref [14], cited from earlier work
[5] = tested on: human tumor cell lines (A549, KB, KBvin, DU145); test: SRB cytotoxicity, HTCL panel as a whole; format: cell-based; conditions: read-out: GI50 values across the HTCL panel, range over A549, KB
[6] = Aqueous solubility; format: physicochemical; conditions: pH 7.4, Solubility (μg/mL), mean ± SD of three experiments

COc1ccc2c(c1)CCCN2c1cccc2cccnc12 [Compound 8d, 6-Methoxy-3,4-dihydro-2H-1,8′-biquinoline]
inhibitory activity in the assembly assay [1]: did not display significant inhibitory activity

COc1ccc(/C=C\c2cc(OC)c(OC)c(OC)c2)cc1O [CA-4, combretastatin A-4]
Inhibition of colchicine binding % Inhibition ± SD 1 μM ([2]; inhibitor 1 μM): 84 ± 0.3%
Inhibition of colchicine binding % Inhibition ± SD 5 μM ([2]; inhibitor 5 μM): 97 ± 0.4%

COc1ccc2c(c1)CCCN2c1nc(Cl)nc2ccccc12 [Compound 1a]
GI50 [3]: 0.0015 ± 0.0003 µM
Inhibition of colchicine binding % Inhibition ± SD 1 μM ([4]; inhibitor 1 μM): 95 ± 0.7%
Inhibition of colchicine binding % Inhibition ± SD 5 μM ([4]; inhibitor 5 μM): 99 ± 0.6%

COc1ccc2c(c1)CCCN2c1nc(NC2CCCC2)nc2ccccc12 [Compound 4c]
GI50 [5]: 140 to 1420 nM

COc1ccc2c(c1)CCCN2c1nc(NCCCO)nc2ccccc12 [Compound 4a, N^1-(2′-(3-Hydroxypropyl)aminoquinazol-4′-yl)-6-methoxy-1,2,3,4-tetrahydro-quinoline]
solubility at 4 h [6]: 75 µg/mL (≈ 206 µM)
GI50 [5]: 16 to 20 nM
